O=c1cc(CBr)c2ccccc2[nH]1
solubility (mole fraction)
Conditions | 278.15 K | 283.15 K | 288.15 K | 293.15 K | 298.15 K | 303.15 K | 308.15 K | 313.15 K | 318.15 K
in NMP | 0.00539 | 0.00606 | 0.00705 | 0.0081 | 0.00928 | 0.0105 | 0.0119 | 0.0135 | 0.0151
in ethanol | 0.00019 | 0.000211 | 0.000235 | 0.000261 | 0.000286 | 0.000316 | 0.000347 | 0.000378 | 0.000411
in isopropanol | 0.000152 | 0.000175 | 0.000202 | 0.000229 | 0.00026 | 0.000293 | 0.000328 | 0.000365 | 0.000406
in n-propanol | 0.000242 | 0.000269 | 0.000297 | 0.000325 | 0.000357 | 0.00039 | 0.00043 | 0.000466 | 0.000505
in water | 4.78e-06 | 6.58e-06 | 9.12e-06 | 1.25e-05 | 1.67e-05 | 2.16e-05 | 2.88e-05 | 3.76e-05 | 4.76e-05

Source: BigSolDB 2.1
